Data from patent US20090022803A1, “Oral Formulations For Delivery of Catecholic Butanes Including Ndga Compounds” (priority 2005, published 2009).

Assay: Stability of M4N formulations at room temperature (time to crystallized precipitation)
Format: physicochemical
Method: A 10 mL solution of M4N at a concentration of about 10 mg/mL in 40% BP-β-CD was made as follows. About 10 mL of the 40% HP-β-CD solution were added to a glass beaker containing a stir bar. The beaker was placed on a magnetic plate and the stir bar was set to stir at medium speed. About […] of M4N were slowly added to the 40% HP-β-CD in the center of the beaker with the aid of a spatula. The M4N/40% HP-β-CD mixture was stirred for 2 hr or until all M4N was uniformly suspended without any clumps being present. The M4N/40% HP-β-CD mixture was optionally heated at 80° C. for about 30 min. (or longer if a larger volume of solution was desired, for example, 1 hr at 80° C. for 100 mL of the M4N/HP-β-CD mixture), or longer as needed to ensure complete dissolution of M4N. […] The final M4N/40% HP-β-CD solution was stored at room temperature and was kept protected from light. This process may be scaled up or down to obtain the requisite volume or concentration of M4N. Formulations containing M4N in other cyclodextrin solutions may be similarly made, such as, for example, by substituting HP-β-CD in the process described above with other cyclodextrins.
A 100 mL solution of M4N at a concentration of about 25 mg/mL in PEG 300 was made as follows. About 100 mL of PEG 300 were added to a glass beaker containing a stir bar. The beaker was placed on a magnetic plate and the stir bar was set to stir at medium speed. About 2.5 g of M4N were slowly added to the PEG 300 in the center of the beaker with the aid of a spatula to prevent M4N from sticking to the beaker wall. The M4N/PEG 300 mixture was stirred for 24 hr or until all M4N had dissolved or was uniformly suspended without any clumps being present. The M4N/PEG 300 mixture was optionally heated at about 60° C. for about 30 min. (or longer if a larger volume of solution was desired, for example, 1 hr at 60° C. for 500 mL of the M4N/PEG 300 mixture), or longer as needed to ensure complete dissolution of M4N. […] If crystals formed, the M4N/PEG 300 solution could be heated again at 60° C. for about 1 hr, with stirring, on a hot magnetic plate until all M4N was dissolved back in solution. The final M4N/PEG 300 solution was stored at room temperature and was kept protected from light. This process may be scaled up or down to obtain the requisite volume or concentration of M4N. Formulations containing M4N in other PEGs may be similarly made, such as, for example, by substituting PEG 300 in the process described above with PEG 400 or PEG 400 monolaurate.
Formulations containing M4N in other water-insoluble lipids combined with non-ionic, ionic or amphipathic surfactants or water-soluble organic solvents may be similarly made, such as, for example, by substituting sesame oil in the process described above with corn oil, olive oil, soybean oil, peppermint oil, or mineral oil and substituting Tween® 20 with Tween® 80, TPGS, lecithin, PEG 300, PEG 400, PEG 400 monolaurate, glycerol, PVP, PG, or other solubilizing agents, and combinations thereof. Stability in reference to the clear liquid solutions herein refers to the time it takes to form crystallized precipitation in solution. A stable solution is one that is clear and free of particulates for an extended period of time.

For `COc1ccc(C[C@@H](C)[C@@H](C)Cc2ccc(OC)c(OC)c2)cc1OC` [Formulation M4N, meso-1,4-bis(3,4-dimethoxyphenyl)-2,3-dimethylbutane], the “Stability at Room Temperature” value (M4N 1 mg/mL suspension in 50% HP-β-CD, 0.5% CMC) was over 7 days, the “Stability Time at Room Temperature” value (M4N 2.4 mg/mL, Sesame Oil, Tween ® 20 and Glycerol, 10% Oil emulsion in 90% saline) was under 1 days and the “Stability Time at Room Temperature” value (M4N 2.9 mg/mL, Sesame Oil and Tween ® 20, 10% Oil emulsion in 90% saline) was under 3 days. For the same molecule, the “Stability at Room Temperature” value (M4N 3.13 mg/mL in 5% HP-β-CD, 12.5% PEG 300 (v/v)) was under 7 days, the “Stability at Room Temperature” value (M4N 4.17 mg/mL in 6.7% HP-β-CD, 16.7% PEG 300 (v/v)) was over 7 days and the “Stability at Room Temperature” value (M4N 6.25 mg/mL in 10% HP-β-CD, 25% PEG 300 (v/v)) was over 7 days. The “Stability at Room Temperature” value (M4N 10 mg/mL in 30% HP-β-CD) was under 3 days, the “Stability at Room Temperature” value (M4N 10 mg/mL in 32% HP-β-CD, 20% PEG 400 (v/v)) was over 7 days and the “Stability at Room Temperature” value (M4N 10 mg/mL in 50% HP-β-CD) was over 7 days. The “Stability at Room Temperature” value (M4N 10 mg/mL in 50% HP-β-CD in saline) was over 7 days, the “Stability Time at Room Temperature” value (M4N 10 mg/mL in Peppermint Oil) was over 3 days and the “stable at room temperature” value (M4N 10 mg/mL in Tween® 20) was “more than 7 days”. For the same molecule, the “stable at room temperature” value (M4N 10 mg/mL in Tween® 80) was “more than 3 days”, the “Stability at Room Temperature” value (M4N 12.5 mg/mL in 12.5% HP-β-CD, 50% PEG 300 (v/v)) was under 1 days and the “Stability at Room Temperature” value (M4N 12.5 mg/mL in 12.5% HP-β-CD, 50% PEG 400 (v/v)) was under 1 days. The “Stability at Room Temperature” value (M4N 12.5 mg/mL in 15% HP-β-CD, 50% PEG 300 (v/v)) was under 7 days, the “Stability at Room Temperature” value (M4N 12.5 mg/mL in 15% HP-β-CD, 50% PEG 400 (v/v)) was under 3 days and the “Stability at Room Temperature” value (M4N 12.5 mg/mL in 20% HP-β-CD, 50% PEG 300 (v/v)) was over 7 days. The “Stability at Room Temperature” value (M4N 12.5 mg/mL in 20% HP-β-CD, 50% PEG 400 (v/v)) was under 7 days, the “Stability at Room Temperature” value (M4N 12.5 mg/mL in 30% HP-β-CD, 25% PEG 400 (v/v)) was over 7 days and the “Stability at Room Temperature” value (M4N 12.9 mg/mL in 23% HP-β-CD, 43% PEG 400 (v/v)) was over 7 days. The “Stability at Room Temperature” value (M4N 12.9 mg/mL in 23% HP-β-CD, 43 PEG 300 (v/v)) was over 7 days, the “Stability at Room Temperature” value (M4N 13.3 mg/mL in 27% HP-β-CD, 33% PEG 300 (v/v)) was over 7 days and the “Stability at Room Temperature” value (M4N 13.3 mg/mL in 27% HP-β-CD, 33% PEG 400 (v/v)) was over 7 days. The “stable at room temperature” value (M4N 20 mg/mL in Tween® 20) was “more than 7 days”, the “Stability at Room Temperature” value (M4N 20 mg/mL suspension in 50% HP-β-CD, 0.5% CMC) was over 7 days and the “Stability Time at Room Temperature” value (M4N 24.3 mg/mL in 75% Sesame Oil, 9% Tween ® 20, 16% Glycerol) was under 7 days. For the same molecule, the “Stability Time at Room Temperature” value (M4N 29 mg/mL in 89% Sesame Oil, 11% Tween ® 20) was over 7 days, the “Stability Time at Room Temperature” value (M4N 40 mg/mL in 50% Peppermint Oil, 50% Tween ® 20) was over 3 days and the “stable at room temperature” value (M4N 40 mg/mL in Tween® 20) was “less than 3 days”. For the same molecule, the “Stability Time at Room Temperature” value (M4N 50 mg/mL in Camillia Oil) was over 7 days, the “Stability Time at Room Temperature” value (M4N 50 mg/mL in Mineral Oil) was under 1 days and the “stable at room temperature” value (M4N 50 mg/mL in Tween® 80) was “less than 1 day”. For the same molecule, the “Stability Time at Room Temperature” value (M4N 60 mg/mL in 50% Peppermint Oil, 50% Tween ® 20) was over 3 days, the “Stability Time at Room Temperature” value (M4N 60 mg/mL in Peppermint Oil) was under 3 days and the “Stability at Room Temperature” value (M4N 60 mg/mL suspension in 50% HP-β-CD, 0.5% CMC) was over 7 days. For the same molecule, the “stable at room temperature” value (M4N 80 mg/mL in Tween® 20) was “less than 3 days”, the “Stability Time at Room Temperature” value (M4N 100 mg/mL in Peppermint Oil) was under 1 days and the “Stability Time at Room Temperature” value (M4N 125 mg/mL in Peppermint Oil) was under 1 days. For the same molecule, the “stability of the suspension at room temperature” value (M4N in glycerol monooleate (Glymo), heated to 60° C., cooled) was “remained stable for two weeks”, the “stable at room temperature” value (M4N up to 60 mg/mL in 50% Tween® 20 and 50% PEG 400) was “more than 3 days” and the “Stability Time at Room Temperature” value (PEG 400 mono-laurate 100%, M4N 20 mg/mL) was over 3 days. The “Stability Time at Room Temperature” value (PEG 400 mono-laurate 100%, M4N 50 mg/mL) was under 1 days, the “Stability Time at Room Temperature” value (Propylene Glycol 100% (w/v), M4N 1 mg/mL) was under 1 days and the “Stability Time at Room Temperature” value (Propylene Glycol 100% (w/v), M4N 10 mg/mL) was under 1 days. The “Stability Time at Room Temperature” value (Propylene Glycol 100% (w/v), M4N 20 mg/mL) was under 1 days, the “Stability at Room Temperature” value (TPGS 20% (w/v), M4N 60 mg/ml, suspension) was over 3 days and the “Stability at Room Temperature” value (TPGS 20% (w/v), M4N 100 mg/ml, suspension) was over 3 days.
